“Also recorded” adds a separate entry of the source.
What was measured:
mdx mice [1] = assay: mdx mouse model: histological evaluation of gastrocnemius muscle (H&E); type: in vivo; conditions: H&E staining; 3 months treatment; comparison to untreated and prednisolone treated mdx mice
Description: (§1) Separate groups (n=12-14) of mdx mice were treated with prednisolone (5 mg/kg/day; per oral in feed), Example 1 (20 and 40 mg/kg/day; per oral in feed) and Example 2 (20 and 40 mg/kg/day; per oral in feed) for 3 months. All mice underwent 30 min biweekly treadmill exercise during the treatment duration to unmask the mild disease phenotype of mdx mouse model.
Hematoxylin and Eosin staining of gastrocnemius muscle of untreated mdx mice show significant degeneration and inflammation.

DBA/1 mice = assay: Collagen antibody induced arthritis (CAIA) model; type: in vivo, mouse; set-up: Mean clinical severity score, Day 7 / Mean clinical severity score, Day 9 / Mean clinical severity score, Day 11 / Mean clinical severity score, Day 14: scale not given here; conditions: for Mean clinical severity score, Day 7 / Mean clinical severity score, Day 9 / Mean clinical severity score, Day 11 / Mean clinical severity score, Day 14: oral, day 0 through day 14; for Mean clinical severity score, Day 7 / Mean clinical severity score, Day 9 / Mean clinical severity score, Day 11 / Mean clinical severity score, Day 14 / Reduction as compared with vehicle-treated mice, Day 7 / Reduction as compared with vehicle-treated mice, Day 9 / Reduction as compared with vehicle-treated mice, Day 11 / Reduction as compared with vehicle-treated mice, Day 14: prednisone 5 mg/kg, Example 7 20 mg/kg
Description: On day 1, DBA/1 mice (Jackson Labs, Bar Harbor, Me.) received an intraperitoneal (i.p.) injection of 2 mg of monoclonal antibody cocktail specific for collagen (CII) (MD Biosciences, St. Paul, Minn.). Two days later (day 3), mice received an i.p. injection of 100 μg of lipopolysaccharide (LPS). Mean clinical severity of CAIA was determined using a macroscopic clinical severity scoring system every 2-3 days by three individuals until the end of the experiment (day 14 post antibody cocktail injection). The scoring criteria was performed as follows:
For intervention studies, mice (n=10) received an oral dose of 20 mg/kg of the compound of Example 7 suspended in cherry syrup (30 μl total volume) on day 0 through day 14. Additional groups of mice (n=10) received 5 mg/kg of prednisone in cherry syrup as a positive control, or cherry syrup alone as a negative control. On day 14, animals were sacrificed via CO2 exposure. Statistical analysis was performed using a two-way ANOVA followed by a Bonferroni post-hoc test.

[2] = tested on: knockout-transgenic sickle cell mice; assay: Mouse model of sickle cell disease; type: in vivo; conditions: 30 mg/kg, 6 weeks
Description: Example 7 was tested in a mouse model of sickle cell disease, knockout-transgenic sickle cell mice were used which have been previously described in Meiler S E et al. 2001.
Female knockout-transgenic sickle mice (aged 6-8 weeks), were treated for 6 weeks with Example 7, (30 mg/kg) (n=5), or a vehicle control (cherry syrup) (n=5). At the end of the 6 week treatment, hematologic parameters were measured and tissues were harvested. Additionally, nociception evaluation was performed before and after treatment by assessing sensitivity to hot and cold pain as previously described in Le Bars D. et al. 2001.

OVA-primed mice = assay: OVA-induced mouse model of acute allergic asthma; type: in vivo; conditions: 20 mg/kg oral on days 6-11
Description: The model used in the current studies has been previously described (Gwinn et al. 2006; Balsley et al. 2010). Briefly, mice were primed via intraperitoneal (i.p) injection with 50 μg of OVA in PBS with 100 μl of alum (200 μl total volume per mouse) on day 0. OVA-primed mice were challenged under light anesthesia (isoflurane) by intranasal delivery of 100 μg of OVA in PBS on days 7-10. Mice were sacrificed via CO2 exposure on day 12 for analysis.
For in vivo intervention studies, mice (n=5) received an oral dose of 20 mg/kg of the compound of Example 7 suspended in cherry syrup (30 μl total volume) on days 6-11. Additional groups of mice (n=5) received 5 mg/kg of prednisone in cherry syrup as a positive control, or cherry syrup alone as a negative control. Following sacrifice on day 12, leukocytes were collected from the airways via bronchoalveolar lavage (BAL). For this procedure, a cannula was inserted into the trachea and two 1 ml washes of cold PBS were infused in and out of the airways. […]
BAL and lung tissue cells were treated with ammonium chloride lysis buffer to remove red blood cells. The remaining leukocytes were then counted and stained for FACS analysis with a combination of PE-Cy5-anti-mouse CD4 and FITC-anti-mouse CD62L to identify effector/memory CD4+ cells (CD4+/CD62L−). […]

Female beagle dogs = assay: Corpora lutea in female dogs, 39-week treatment; type: in vivo, dog; conditions: at ≥2 mg/kg/day, dose-dependent increases in incidence; doses of 2, 10, or 50 mg/kg for 39 weeks
Description: Female beagle dogs were treated with Example 7 for 39 weeks at doses of 2, 10, or 50 mg/kg. This experiment was performed at MPI (report #1998-014). Ovaries were examined by a trained pathologist.

DBA mdx mice = assay: Heart function in mdx mice (echocardiography); type: in vivo, mouse; conditions: 15 and 30 mg/kg/day oral syrup, 8 weeks
From the text: To test the compound of Example 7 and its relationship to heart function, 4 groups of mdx mice (n=10, per group) and 1 group of wild type mice (n=10, per group) were studied. The groups were as indicated as such in Table 2.
The method of administration was a daily oral syrup an the treatment period was eight (8) weeks. The age at the start of the first dose was 6-7 weeks. Echocardiography was used to assess ejection fraction and fraction shortening following drug treatment.

C57BL/6 mice = assay: Mouse carrageenan-induced paw edema model; type: in vivo; conditions: Example 7 10, 20, 40 mg/kg in cherry syrup; 5 hours after carrageenan
Description: Female C57BL/6 mice (n=5 per group) were administered prednisone (5 mg/kg) and the compound of Example 7 (10, 20, 40 mg/kg) in cherry syrup. 24 hours later, drugs and vehicle control (syrup) were administered again. 2 hours later, mice were anesthetized, paw thickness was measured with a caliper to obtain a baseline value, and 1% carrageenan was injected subcutaneously in the subplantar region of the right hind paw. Mice were sacrificed 5 hours later and paw edema was measured via caliper. Change in thickness was calculated by subtracting baseline value from post-carrageenan injection value. Statistical analysis was performed using a Student's T-test.

[3] = tested on: J:NU mice injected with BSG mouse CSPG4+/+ cells; assay: Mouse model of diffuse intrinsic pontine glioma; type: in vivo
Description: A murine model of brainstem glioma developed in Dr. Javad Nazarian's laboratory at Children's National Medical Center was used for testing VBP15 efficacy in vivo. BSG mouse CSPG4+/+ cells were expanded in culture to form neurospheres and were subsequently injected into brainstems of 2-day old (P2) J:NU mice. Dexamethasone (Dex) (2.5 mg/kg body weight), Example 7 (30 mg/kg body weight) and cherry syrup (control) were orally administered daily for […] starting on postnatal day 11. In another study, mice were treated daily with Dexamethasone (Dex) (2.5 mg/kg), Example 7 (30 mg/kg) or cherry syrup from post-natal days 10-46.

mdx mice [4] = assay: mdx mouse model of dystrophy: body weight; type: in vivo; conditions: prednisolone 5 mg/kg/day per oral in feed; 33.8 weeks age; P<0.05
Description: as §1

mdx mice [5] = assay: mdx mouse model: in vitro force contractions of EDL muscle; type: in vivo; conditions: prednisolone 5 mg/kg/day; P<0.05
Description: as §1
The distal tendon of the extensor digitorum longus (EDL) muscle was tied securely to the lever arm of a servomotor/force transducer (model 305B, Aurora Scientific, Richmond Hill, ON, Canada) and the proximal tendon to a tissue clamp. Muscles were stimulated between two platinum electrodes. […] With the muscle held at Lo using stimulation frequencies of 30, 50, 80, 100, 120 and 150 Hz, the maximum isometric tetanic force (Po) developed during a 300 ms train of stimulation pulses was recorded for the EDL muscle. The muscle length was then measured with calipers and after removal of the muscle from the bath the mass of the muscle was determined. For each muscle, the optimum fiber length (Lf) was calculated by multiplying Lo by a previously determined Lf/Lo ratio of 0.45. Total muscle fiber cross-sectional area was determined by dividing the wet mass by the product of Lf and the density of mammalian skeletal muscle (1.06 mg/mm^3). […]

| Compound | Histology of skeletal muscle: inflammation, degeneration, regenerating fibers (mdx mice [1]) | Mean clinical severity score, Day 7 (DBA/1 mice) | Mean clinical severity score, Day 9 (DBA/1 mice) | Mean clinical severity score, Day 11 (DBA/1 mice) | Mean clinical severity score, Day 14 (DBA/1 mice) | Reduction as compared with vehicle-treated mice, Day 7 (DBA/1 mice) | Reduction as compared with vehicle-treated mice, Day 9 (DBA/1 mice) | Reduction as compared with vehicle-treated mice, Day 11 (DBA/1 mice) | Reduction as compared with vehicle-treated mice, Day 14 (DBA/1 mice) | also measured |
| --- | --- | --- | --- | --- | --- | --- | --- | --- | --- | --- |
| C[C@]12CCC(=O)C=C1CCC1C2=CC[C@@]2(C)C1CC[C@]2(O)C(=O)CO (stereo partly drawn) [Example 1, (10S,13S,17R)-17-hydroxy-17-(2-hydroxyacetyl)-10,13-dimethyl-6,7,8,10,12,13,14,15,16,17-decahydro-1H-cyclopenta[a]phenanthren-3(2H)-one] | significant decrease in inflammation, degeneration, and increase in regenerating muscle fibers | – | – | – | – | – | – | – | – | – |
| C[C@]12C=CC(=O)C=C1CCC1C2=CC[C@@]2(C)C1CC[C@]2(O)C(=O)CO (stereo partly drawn) [Example 2, (10S,13S,17R)-17-hydroxy-17-(2-hydroxyacetyl)-10,13-dimethyl-6,7,8,10,12,13,14,15,16,17-decahydro-3H-cyclopenta[a]phenanthren-3-one] | significant decrease in inflammation, degeneration, and increase in regenerating muscle fibers | – | – | – | – | – | – | – | – | – |
| C[C@]12C=CC(=O)C=C1CC[C@@H]1[C@@H]2C(=O)C[C@@]2(C)[C@H]1CC[C@]2(O)C(=O)CO [Prednisone, reference compound] | – | 2.4 ± 0.68 | 1.5 ± 0.27 | 2.9 ± 0.39 | 0.7 ± 0.3 | 69.8% | 69.8% | 69.1% | 88.7% | – |
| C[C@@H]1CC2C3CCC4=CC(=O)C=C[C@]4(C)C3=CC[C@]2(C)[C@@]1(O)C(=O)CO (stereo partly drawn) [Example 7, (10S,13S,16R,17R)-17-hydroxy-17-(2-hydroxyacetyl)-10,13,16-trimethyl-6,7,8,10,12,13,14,15,16,17-decahydro-3H-cyclopenta[a]phenanthren-3-one] | – | 4.5 ± 0.95 | 5.0 ± 0.77 | 5.6 ± 0.82 | 3.1 ± 0.69 | 43.8% | 35.5% | 41.3% | 50% | Platelet count [2]: decreases; also recorded: reduces platelet count; Sensitivity to cold pain [2]: strikingly decreases sensitivity to cold pain; also recorded: reduces sensitivity to cold pain; Sensitivity to heat pain [2]: significantly decreases sensitivity to heat pain; also recorded: reduces sensitivity to heat pain; Spleen size [2]: decreased spleen size; also recorded: reduces spleen size; White blood cell count [2]: decreases white blood cell count; also recorded: reduces white blood cell count; Acute allergic lung inflammation: leukocyte infiltration (eosinophils and CD4+ T cells) and mucus production (OVA-primed mice): effective at improving parameters of acute allergic lung inflammation; Corpora lutea in the ovaries (Female beagle dogs): absent bilaterally; Collagen antibody induced arthritis, overall effect (DBA/1 mice; 20 mg/kg oral): effective at reducing collagen antibody induced arthritis; Ejection fraction (DBA mdx mice): improved ejection fraction; Fraction shortening (DBA mdx mice): improved fraction shortening; Paw edema induced by carrageenan (change in paw thickness) (C57BL/6 mice): effective at reducing mouse paw edema; Increase in survival relative to mice treated with dexamethasone or control mice ([3]; 30 mg/kg daily from post-natal days 10-46): 19%; Brain edema ([3]; 30 mg/kg oral daily for 14 weeks starting on postnatal day 11): significant decrease in brain edema |
| C[C@]12C=CC(=O)C=C1CC[C@@H]1[C@@H]2[C@@H](O)C[C@@]2(C)[C@H]1CC[C@]2(O)C(=O)CO [Prednisolone] | appeared to increase degeneration and decrease in regeneration | – | – | – | – | – | – | – | – | Body weight versus untreated mice (mdx mice [4]): significantly lower body weight; Specific force of EDL muscle, difference to untreated group (mdx mice [5]): no statistically significant (P<0.05) difference |

— patent publication US11690853B2, “Non-hormonal steroid modulators of NF-κβ for treatment of disease” (ReveraGen BioPharma, Inc., priority 2015, dated 2023)
